Activity calls are given as the source filed them.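 Rule for the calls: active = cell-killing curve crosses a set limit at a concentration no more than twice the top valid dose; inconclusive = flat curve with a 30 to 70% loss, or a poor fit; inactive = signal rising instead of falling, and the rest.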

One assay in a line: cytotoxicity in EWS/Fli1-dependent TC71 cells – cell-based, luminescence, cherry-picked samples, retest, confirmation (AID 720570). As to conditions: TC71 Ewing sarcoma viability, CellTiter-Glo ATP, 72 h; at 23.5 µM (top of the series). A general note: Cellular ATP, detected with luciferase, serves as a proxy for viable cell number.
Regarding `COC(=O)C[C@@H]1CC[C@@H]2[C@@H](COc3ccc(NC(=O)Nc4cccc(Cl)c4)cc3C(=O)N2C)O1`, the activity change, negative = cytotoxicity is -4.34% (inactive).

Regarding `COC(=O)C[C@@H]1CC[C@@H]2[C@H](COc3ccc(NC(=O)c4cccc(F)c4)cc3C(=O)N2C)O1`, the activity change, negative = cytotoxicity is 2.03% (inactive). For `N#C[C@H]1[C@H](c2ccc(C#Cc3ccccc3F)cc2)[C@@H](CO)N1C(=O)C1CCCCC1`, the activity change, negative = cytotoxicity was -17% (inactive).

The same assay, now with this note: TC71 Ewing sarcoma viability, CellTiter-Glo ATP, 72 h; at 26 µM (top of the series).
In the case of `Nc1ccc(-c2cc3ccccc3c(=O)o2)cc1`, the activity change, negative = cytotoxicity is 14.9% (inactive).

Take `O=C(NCCc1ccccc1)c1ccccc1NC(=O)C1CCCO1` (centres undefined): the activity change, negative = cytotoxicity is -0.496% (inactive).

In the case of `C[C@H]1CN([C@@H](C)CO)C(=O)c2cccc(NC(=O)c3ccc(-c4nccs4)cc3)c2O[C@@H]1CN(C)Cc1ccc(C(=O)Nc2ccccc2N)cc1`, the activity change, negative = cytotoxicity is -30.9% (inactive). As to `COc1ccc(/C=C2\SC(=S)N(CCCC(=O)Nc3ccc(O)cc3)C2=O)cc1`, the activity change, negative = cytotoxicity was 0.096% (inactive). Regarding `CN(C)c1ccc(N=Nc2ccc(C(=O)O)cc2)cc1`, the activity change, negative = cytotoxicity is 9.97% (inactive). On to `COc1ccccc1NS(=O)(=O)c1cc(NC(=O)c2cc3ccccc3oc2=O)ccc1C`, for which the activity change, negative = cytotoxicity was 1.31% (inactive). Take `C[C@@H]1CN([C@@H](C)CO)C(=O)Cc2cc(NC(=O)Cn3cnnn3)ccc2O[C@@H]1CN(C)Cc1ccc(Oc2ccccc2)cc1`: the activity change, negative = cytotoxicity was 21.2% (inactive). In the case of `CC(C)(C)c1ccc(/C=N/Nc2ccc(C(=O)O)cc2)cc1`, the activity change, negative = cytotoxicity is 1.96% (inactive). `O=C1Nc2ccccc2C1=Nc1ccc(Br)cc1`: the activity change, negative = cytotoxicity is -5.59% (inactive). On the same count and under the same terms, the figure for `O=C(CN1C(=O)C(=O)c2ccccc21)c1ccc(Cl)cc1` is -1.64% (inactive); for `CO[C@H]1CN(C)C(=O)c2ccc(NC(=O)c3ccc(-c4ccccc4)cc3)cc2OC[C@H](C)NC[C@H]1C` it is 7.36% (inactive). Same read-out and setting: with `O=c1c2ccccc2oc2cc(C#CC3(O)CCCCC3)ccc12` the figure was -17.6% (inactive).

Regarding `Cc1ccc(N=C2NC(=O)/C(=C\c3cccs3)S2)cc1C`, the activity change, negative = cytotoxicity was -0.931% (inactive).

With `COc1ccc(CCC(C)NCC2CCCCC2)cc1` (centres undefined), the activity change, negative = cytotoxicity is 7.46% (inactive). Regarding `Cc1ccc(/C=C2\SC(=S)N(CCC(=O)NNC(=O)c3ccccc3O)C2=O)cc1`, the activity change, negative = cytotoxicity is -7.03% (inactive). With `Cc1cc(C)cc(OCC(=O)OCC(=O)Nc2cc(S(=O)(=O)N3CCOCC3)ccc2C)c1`, the activity change, negative = cytotoxicity is 5.46% (inactive). For the molecule `CCOc1ccccc1CNC(=O)c1ccc(Sc2ccc(Cl)cc2)c(NC(C)=O)c1`, the activity change, negative = cytotoxicity is -3.24% (inactive).

Turning to `O=C1C(=O)N(CCS(=O)(=O)c2ccccc2)c2ccc(Cl)cc21`, the activity change, negative = cytotoxicity is 20.1% (inactive). Regarding `C[C@@H]1CCCCO[C@@H](CN(C)C(=O)Cc2ccccc2)[C@@H](C)CN([C@@H](C)CO)C(=O)c2cc(NS(=O)(=O)c3ccc(F)cc3)ccc2O1`, the activity change, negative = cytotoxicity is -0.12% (inactive). `Cc1ccc(/C=C/C(=O)N2CCN(S(=O)(=O)c3c(C)c(C)cc(C)c3C)CC2)o1`: the activity change, negative = cytotoxicity is -5.96% (inactive). On to `Cc1ccc(C(=O)O/N=C(\N)c2ccccn2)cc1`, for which the activity change, negative = cytotoxicity was -10% (inactive). For `O=C1C(=O)N(Cc2cccs2)c2ccccc21`, the activity change, negative = cytotoxicity was 17.4% (inactive). On the same count and under the same terms, with `COC(=O)C[C@@H]1CC[C@@H]2[C@H](COc3ccc(NC(=O)c4ccc(F)c(F)c4)cc3C(=O)N2C)O1` the figure was 9.2% (inactive); with `COC(=O)Cc1[nH]n(-c2nc3ccccc3s2)c(=O)c1C(C)=Nc1ccc(C)cc1`, -7.01% (inactive); with `CC(=O)Nc1ccc(S(=O)(=O)Nc2ccc(N3CCCCC3)cc2)cc1`, -4.73% (inactive). For the molecule `CCCCN=C(NNc1ccc(Br)cc1)C(=O)OCC`, the activity change, negative = cytotoxicity is 4.46% (inactive). As for `Cc1noc(C)c1NC(=O)Nc1ccc2c(c1)CC(=O)N([C@@H](C)CO)C[C@@H](C)[C@@H](CN(C)Cc1ccc(Cl)c(Cl)c1)O2`, the activity change, negative = cytotoxicity was -0.95% (inactive). For `C(=N\Nc1ccc2ccccc2n1)/c1ccc2c(c1)OCCO2`, the activity change, negative = cytotoxicity is -8.46% (inactive). Consider `COc1ccc(NC(=O)c2cc3ccccc3oc2=O)cc1`, for which the activity change, negative = cytotoxicity is 7.98% (inactive).

In the case of `O=C(CNC(=O)Cc1ccccc1)N=Nc1c(O)n(Cc2ccc3c(c2)OCO3)c2ccccc12`, the activity change, negative = cytotoxicity is 8.54% (inactive). On to `Cc1ccc(S(=O)(=O)N(C)C[C@H]2Oc3c(cccc3N(C)C)C(=O)N([C@@H](C)CO)C[C@@H]2C)cc1`, for which the activity change, negative = cytotoxicity was -6.3% (inactive). On to `O=c1c2ccccc2oc2ccc(C#CC3(O)CCCCC3)cc12`, for which the activity change, negative = cytotoxicity was -10.3% (inactive). Same read-out and setting: with `Cc1ccc(-c2ccc3c(c2)O[C@@H](CN(C)C(=O)Nc2ccc(F)cc2)[C@H](C)CN([C@@H](C)CO)S3(=O)=O)cc1` the figure was -12.5% (inactive); with `CCCN(C)C[C@H]1Oc2ncc(-c3ccccc3)cc2C(=O)N([C@@H](C)CO)C[C@H]1C`, 13% (inactive); with `CC(NC(=O)c1ccco1)c1nc(-c2ccc(C(C)(C)C)cc2)no1` (centres undefined), -6.69% (inactive). On to `N#C[C@H]1[C@H](c2ccc(C#Cc3ccccc3F)cc2)[C@@H](CO)N1C(=O)C1CCOCC1`, for which the activity change, negative = cytotoxicity was -12.8% (inactive).

Take `COc1ccc(C/C(N)=N/OC(C)=O)cc1OC`: the activity change, negative = cytotoxicity is 9.15% (inactive). The same measure, in the same setting: with `Cc1cc(Br)ccc1N=C1C(=O)Nc2ccccc21` the figure was 6.85% (inactive); with `COc1ccccc1/C=C1\SC(=S)N(CCC(=O)Nc2cc(C)on2)C1=O`, 6.74% (inactive). `CC1(CCc2ccccc2)NC(=O)N(CC(=O)N2CC(=O)Nc3ccccc32)C1=O` (centres undefined): the activity change, negative = cytotoxicity is 3.37% (inactive). For `O=C(Nc1cccc(Oc2ccc3c(c2)C(=O)NC3=O)c1)c1cccs1`, the activity change, negative = cytotoxicity is 9.53% (inactive). Still for that read-out and setting: with `C[C@@H]1CN([C@H](C)CO)S(=O)(=O)c2ccc(C#CC3CC3)cc2O[C@@H]1CN(C)Cc1ccccc1F` the figure was -4.35% (inactive); with `CCCc1nc2ccc(NC(=O)c3cccs3)cc2c(=O)n1Cc1ccccc1Cl`, 2.97% (inactive).

Take `COc1cc(C(c2c(C)[nH][nH]c2=O)c2c(C)[nH][nH]c2=O)ccc1OC(C)C`: the activity change, negative = cytotoxicity was 3.29% (inactive).

As for `CCCNC(=O)[C@@H]1[C@@H](CO)[C@@H]2Cn3c(ccc(-c4ccccc4)c3=O)[C@H]1N2C(=O)CC`, the activity change, negative = cytotoxicity was 0.956% (inactive). For the molecule `C=C(C(=O)c1ccccc1)C(C(=C)C(=O)c1ccccc1)c1ccc(OC)cc1`, the activity change, negative = cytotoxicity is 10.8% (inactive). As to `COc1ccc(S(=O)(=O)Nc2ccc3c(c2)C(=O)N([C@H](C)CO)C[C@@H](C)[C@@H](CN(C)CC2CCCCC2)OCCCC[C@H](C)O3)cc1`, the activity change, negative = cytotoxicity is -1.56% (inactive).

Regarding `COC(=O)[C@H]1[C@H](CO)[C@H]2Cn3c(ccc(-c4ccccc4F)c3=O)[C@@H]1N2CC1CCCC1`, the activity change, negative = cytotoxicity was 4.06% (inactive). Same read-out and setting: the figure for `O=C(CCCN1C(=O)/C(=C/c2ccccc2Cl)SC1=S)NNC(=O)c1ccc(Cl)cc1Cl` is -1.95% (inactive); for `CCN(CC)C(=O)CN1C(=O)C(=O)c2ccccc21` it is 6.39% (inactive). Still for that read-out and setting: with `COC(=O)C[C@@H]1CC[C@@H]2[C@@H](COc3ccc(NC(=O)Cc4cccs4)cc3C(=O)N2C)O1` the figure was 14.1% (inactive); with `CC(Oc1cccc(Cl)c1)C(=O)NCCCCc1ccccc1` (centres undefined), 13.3% (inactive); with `CCCn1c(C)cc(C(=O)CN2C(=O)c3ccccc3S2(=O)=O)c1C`, 5.44% (inactive). Take `CCOc1ccc(-c2cc(CCCC(=O)N3CCN(c4ccc(OC)cc4)CC3)no2)cc1`: the activity change, negative = cytotoxicity is -1.53% (inactive).

As for `O=C(CNC(c1ccccc1)c1ccccc1)Nc1ccccc1-c1ccccc1`, the activity change, negative = cytotoxicity is 11.2% (inactive). Take `C/C(=N\Nc1cccc2cccnc12)c1ccccn1`: the activity change, negative = cytotoxicity was 3.52% (inactive). Consider `COc1cc(OC)cc(-c2cc3nc(C)c(CCC(=O)O)c(C)n3n2)c1`, for which the activity change, negative = cytotoxicity was 13.7% (inactive). Regarding `CCOc1ccc(C(c2c(NC(=O)c3ccccc3)sc(C)c2C)N2CCN(CCO)CC2)cc1` (centres undefined), the activity change, negative = cytotoxicity is 16.1% (inactive).

With `CC(=NNc1ccc2ccccc2n1)c1ccccc1O`, the activity change, negative = cytotoxicity is -20.9% (inactive). Regarding `Cc1cccc(/C=N/Nc2ccc3ccccc3n2)c1`, the activity change, negative = cytotoxicity was -16.4% (inactive). Same read-out and setting: the figure for `Nc1ccc(-c2cc3ccccc3oc2=O)cc1` is -3.32% (inactive); for `C[C@@H]1CN([C@H](C)CO)C(=O)c2cc(NC(=O)Nc3ccccc3)ccc2O[C@@H]1CN(C)Cc1ccc(C(=O)Nc2ccccc2N)cc1` it is -33.9% (inactive). For the molecule `CCCCNC1=CC(=O)C(=O)c2ccccc21`, the activity change, negative = cytotoxicity is 3.77% (inactive).

For `COC(=O)C[C@@H]1CC[C@H]2[C@H](COc3ccc(NC(=O)Nc4cc(C)cc(C)c4)cc3C(=O)N2C)O1`, the activity change, negative = cytotoxicity is 5.7% (inactive). On to `CCc1ccc(/C=C2\SC(=S)N(CCC(=O)Nc3cc(C)on3)C2=O)cc1`, for which the activity change, negative = cytotoxicity was 9.95% (inactive).

For `COc1ccc(OC)c(-c2cc(C(F)(F)F)c3c(n2)sc2c(O)cc(=O)[nH]c23)c1`, the activity change, negative = cytotoxicity was -3.31% (inactive).

The values are drawn from PubChem BioAssay AID720570 (Broad Institute, 2013).
